Here are results for 1 compound from US20030129664A1, “Novel Assays” (priority 1999, published 2003).

In assay [1] the target is T1, RP-23 receptor (Mus musculus, UniProt P30731).
T1 construct: expressed in transfected cells; G418 and hygromycin selection
Briefly: FLIPR functional assay of intracellular calcium mobilization (Fluo-3) in HEK-293 cells expressing RP-23 receptor with Gαqi5. The assay is classed as cell-based. On the procedure:
The RP-23 gene (Harrigan et al., Molecular Endocrinol. 5:1331-1338 (1991)) was obtained and used to generate a mammalian expression vector. Specifically, 40 μg of RP-23 receptor DNA was digested with 100 units of EcoRI enzyme (Pharmacia) (Lambda ZAP II) at 37 degrees C., isolated on a 1% agarose gel and subcloned into the Eco RI site of pcDNA 3.0 (InVitrogen, San Diego, Calif.). The expression vector so produced was called pcDNA 3.0-RP-23. Plasmid DNA was prepared using the Qiaprep system from Qiagen.
HEK-293 cells were transfected with pcDNA 3.0-RP-23 using the calcium-phosphate method and subsequently transfected with DNA encoding a chimeric G protein (Gαqi5). This is Gq alpha with the C-terminal amino acids changed from EYNLV to DCGLF. The entire protein was subcloned in an expression vector (pCEP, Molecular Devices). […] The presence of mRNA specific for clone RP-23 was assessed by Northern Blot Analysis and by the reverse transcriptase polymerase chain reaction (RT-PCR). […]
A functional assay was performed with FLIPR using the fluorescent calcium indicator dye Fluo-3 (Molecular Probes) on a 96 well platform. […] The cells were analyzed using the FLIPR system to measure the mobilization of intracellular calcium in response to different compounds.
(In general: Calcium flux is commonly read through the fluorescence of an indicator in the cells.)

The subject of assay [2] is parental HEK-293 cells. Briefly: FLIPR calcium assay in control cells (non-transfected HEK-293, other receptors or Gαqi5 alone). The assay is classed as cell-based. The settings on record: cells transfected with other receptors or Gαqi5 alone. The method, then:
A functional assay was performed with FLIPR using the fluorescent calcium indicator dye Fluo-3 (Molecular Probes) on a 96 well platform. HEK-293 cells, either expressing the receptor with the chimeric G protein (Gαqi5) or wild type cells were loaded with Fluo-3 as follows. Stable HEK-293 clones expressing RP-23 receptor with Gαqi5and/or cells expressing RP-23R alone, or parental cells were plated at a density of 70,000 cells/well in a 96 well plate. On the day of the experiment, the RP-23 receptor expressing cells were loaded with fluorescent solution (Dulbecco's modified medium with 10% fetal bovine serum containing 4 μM Fluo-3 and […] pluronic acid). The cells were incubated at 37° C. for one hour in a humidified chamber. Following the incubation, cells were Washed five times in Hanks' with 20 mM Hepes and 0.1% BSA (pH 7.4). The cells were analyzed using the FLIPR system to measure the mobilization of intracellular calcium in response to different compounds.
HEK-293 cells that endogenously express some GPCRs such as PACAP receptors can be used as an internal control for assays. Background signal was established with all of the compounds in the parental HEK-293 cells (non-transfected) or parental HEK-293 cells transfected with Gαqi5 chimeric protein using the FLIPR assay. […]

T1 sequence (P30731 18-423): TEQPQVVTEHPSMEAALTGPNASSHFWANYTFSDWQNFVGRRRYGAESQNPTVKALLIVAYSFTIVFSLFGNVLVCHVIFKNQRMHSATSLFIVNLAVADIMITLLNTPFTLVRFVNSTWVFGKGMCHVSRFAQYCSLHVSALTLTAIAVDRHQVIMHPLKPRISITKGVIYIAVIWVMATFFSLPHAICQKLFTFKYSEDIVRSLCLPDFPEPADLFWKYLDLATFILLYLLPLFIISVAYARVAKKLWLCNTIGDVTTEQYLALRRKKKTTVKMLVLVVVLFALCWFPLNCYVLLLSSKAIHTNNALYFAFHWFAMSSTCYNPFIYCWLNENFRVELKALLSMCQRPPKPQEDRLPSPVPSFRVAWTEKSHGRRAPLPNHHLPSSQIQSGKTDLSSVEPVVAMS

Consider `CCCCCCCCCCCCC/C=C/[C@@H](O)[C@@H](N)COP(=O)(O)O` [sphingosine-1-PO4], for which the “calcium response (FLIPR signal) compared to control cells” value in assay [1] (HEK-293 cells expressing RP-23 receptor and Gαqi5 chimeric protein, compounds dissolved at 3 μM, compared with parental HEK-293 and HEK-293 transfected with Gαqi5) is on record as “consistently elicited a significant signal”. In addition, the “dose-response relationship of calcium response” value in assay [1] (cells transfected with RP-23 and Gαqi5) is “dose-response relationship”. Moreover, the “dose-response relationship of calcium response in control cells” value in assay [2] is “not in non-transfected cells or in cells transfected with other receptors or Gαqi5 alone”.
